Results taken from EP1650209A1, “Griseusin derivatives and their use as antitumor agents” (Oncotest GmbH, priority 2004, dated 2006).
≈ marks a conversion by molar mass, not a printed value.

Tests used:
Experiment in all cases: Clonogenic assay, colony formation of tumor stem cells from xenografts
Format in all cases: cell-based, human
CEXF 773 = details: Cervix, xenograft CEXF 773, colony formation
Procedure: (§1) Using various human cancer xenografts in vitro, the concentrations of compound B which inhibit formation of tumor colonies of tumor stem cells by 50% (IC50) and 70% (IC70) are determined in a clonogenic assay. Specifically, each solid tumor of bladder cancer (BXF 1036 and BXF 1299), cervical cancer (CEXF 633 and CEXF 773), colic cancer (CXF 1103, CXF 158, CXF 1729, CXF 264 and CXF 280), gastric cancer (GXF 251 and GXF 97), head and neck cancer (HNXF 536), liver cancer (LIXF 575), non small cell lung cancer comprising adeno, squamous epithelium and large cell carcinoma (LXFA 1012, LXFA 289, LXFA 297, LXFA 526, LXFA 592, LXFA 629, LXFA 677, LXFE 409, LXFL 1072, LXFL 430LX and LXFL 529), small cell lung cancer (LXFS 650), mammary cancer (MAXF 1162, MAXF 1384, MAXF 401, MAXF 449, MAXF 574, MAXF 583, MAXF 713 and MAXF 857), melanoma (MEXF 1341, MEXF 462, MEXF 535 and MEXF 989), ovary cancer (OVXF 899), pancreatic cancer (PAXF 546 and PAXF 736), prostate cancer (DU-145 and PC3M), pleuramesothelioma (PXF 1752), renal cancer (RXF 1220, RXF 1393, RXF 393, RXF 631 and RXF 944LX), and sarcoma (SXF 1301 and SXF 463) engrafted on RPMI nu/nu thymus aplastic nude mice were explanted, disaggregated by mincing and enzymatic digestion for 50 minutes using 125 U/mL DNAse I, 41 U/mL collagenase IV, 100 U/ml hyaluronidase III, and 1 U/mL dispase I, and passed through sieves of 200 µm and 50 µm mesh size and washed twice with sterile PBS-buffer to remove cell aggregated from single cells. The clonogenic assay was performed in a 24 multiwell format. Each of the resulting single cell suspensions was added at a density of 2·10^4 to 6·10^4 cells per well to 0.2 ml of Iscove's Modified Dulbecco's Medium (IMDM) containing 20% fetal calf serum and 0.01% gentamicin supplemented with 0.4% (w/v) agar, and plated onto a bottom layer consisting of the same culture medium containing 0.75% (w/v) agar. After 24 hours IMDM containing 20% fetal calf serum and 0.01 % gentamicin, together with a test compound, was added there to. Then, the plate was incubated at 37°C for 10 to 20 days in a humidified atmosphere of air containing 7.5% CO2. Within this period, in vitro tumor growth led to the formation of colonies with a diameter of > 50µm. Colony counts were performed with an automatic image analysis system (OMNICON 3600). 24 hours prior to evaluation, vital colonies were stained with a vital staining dye. Therefore, 100 µl of a sterile aqueous solution of 2-(4-iodophenyl)-3-(4-nitrophenyl)-5-phenyltetrazolium chloride (1 mg/ml) were added to each well of the plate, and plates were incubated for 24 hours at 37°C in a humidified atmosphere of air containing 7.5% CO2. Inhibition of colony formation was expressed as test versus untreated control (T/C-value [%]). IC50 and IC70 values were determined by plotting compound concentration versus cell viability. Table 3: Inhibition of Colony Formation of Tumor Stem Cells by griseusin derivative B

RXF 631 = details: Kidney, xenograft RXF 631, colony formation
Procedure: as §1

CEXF 633 = details: Cervix, xenograft CEXF 633, colony formation
Procedure: as §1

RXF 1393 = details: Kidney, xenograft RXF 1393, colony formation
Procedure: as §1

MEXF 462 = details: Melanoma, xenograft MEXF 462, colony formation
Procedure: as §1

LXFL 529 = details: Lung, non small cell, xenograft LXFL 529, colony formation
Procedure: as §1

MEXF 1341 = details: Melanoma, xenograft MEXF 1341, colony formation
Procedure: as §1

CXF 1729 = details: Colon, xenograft CXF 1729, colony formation
Procedure: as §1

RXF 1220 = details: Kidney, xenograft RXF 1220, colony formation
Procedure: as §1

LXFL 1072 = details: Lung, non small cell, xenograft LXFL 1072, colony formation
Procedure: as §1

LXFA 592 = details: Lung, non small cell, xenograft LXFA 592, colony formation
Procedure: as §1

BXF 1299 = details: Bladder, xenograft BXF 1299, colony formation
Procedure: as §1

LXFL 430LX = details: Lung, non small cell, xenograft LXFL 430LX
Procedure: as §1

MEXF 989 = details: Melanoma, xenograft MEXF 989, colony formation
Procedure: as §1

LXFA 629 = details: Lung, non small cell, xenograft LXFA 629, colony formation
Procedure: as §1

MAXF 574 = details: Breast, xenograft MAXF 574, colony formation
Procedure: as §1

PC3M = details: Prostate, xenograft PC3M
Procedure: as §1

PAXF 736 = details: Pancreas, xenograft PAXF 736, colony formation
Procedure: as §1

C[C@@H]1CC(=O)[C@@H](O)[C@]2(O1)O[C@@H]1CC(=O)O[C@@H]1C1=C2C(=O)c2c(O)cccc2C1=O [Compound B, 4'-dehydro-deacetylgriseusin A]
IC50 (CEXF 773): 1.936 µg/mL (≈ 4.84 µM) | IC70 (CEXF 773): 2.333 µg/mL (≈ 5.83 µM) | IC50 (RXF 631): 0.517 µg/mL (≈ 1.29 µM) | IC70 (RXF 631): 0.719 µg/mL (≈ 1.8 µM) | IC50 (CEXF 633): 1.310 µg/mL (≈ 3.27 µM) | IC70 (CEXF 633): 1.837 µg/mL (≈ 4.59 µM) | IC50 (RXF 1393): 0.592 µg/mL (≈ 1.48 µM) | IC70 (RXF 1393): 0.769 µg/mL (≈ 1.92 µM) | IC50 (MEXF 462): 1.666 µg/mL (≈ 4.16 µM) | IC70 (MEXF 462): 2.152 µg/mL (≈ 5.38 µM) | IC50 (LXFL 529): 0.364 µg/mL (≈ 0.909 µM) | IC70 (LXFL 529): 0.699 µg/mL (≈ 1.75 µM) | IC50 (MEXF 1341): 0.462 µg/mL (≈ 1.15 µM) | IC70 (MEXF 1341): 0.673 µg/mL (≈ 1.68 µM) | IC50 (CXF 1729): 0.453 µg/mL (≈ 1.13 µM) | IC70 (CXF 1729): 0.630 µg/mL (≈ 1.57 µM) | IC50 (RXF 1220): 0.782 µg/mL (≈ 1.95 µM) | IC70 (RXF 1220): 0.952 µg/mL (≈ 2.38 µM) | IC50 (LXFL 1072): 0.252 µg/mL (≈ 0.629 µM) | IC70 (LXFL 1072): 0.468 µg/mL (≈ 1.17 µM) | IC50 (LXFA 592): 0.215 µg/mL (≈ 0.537 µM) | IC70 (LXFA 592): 0.468 µg/mL (≈ 1.17 µM) | IC50 (BXF 1299): 1.107 µg/mL (≈ 2.77 µM) | IC70 (BXF 1299): 1.662 µg/mL (≈ 4.15 µM) | IC50 (LXFL 430LX): 0.272 µg/mL (≈ 0.679 µM) | IC70 (LXFL 430LX): 0.468 µg/mL (≈ 1.17 µM) | IC50 (MEXF 989): 0.118 µg/mL (≈ 0.295 µM) | IC70 (MEXF 989): 0.182 µg/mL (≈ 0.455 µM) | IC50 (LXFA 629): 0.808 µg/mL (≈ 2.02 µM) | IC70 (LXFA 629): 1.276 µg/mL (≈ 3.19 µM) | IC50 (MAXF 574): 0.335 µg/mL (≈ 0.837 µM) | IC70 (MAXF 574): 0.523 µg/mL (≈ 1.31 µM) | IC50 (PC3M): 0.419 µg/mL (≈ 1.05 µM) | IC70 (PC3M): 0.818 µg/mL (≈ 2.04 µM) | IC50 (PAXF 736): 0.246 µg/mL (≈ 0.614 µM) | IC70 (PAXF 736): 0.452 µg/mL (≈ 1.13 µM)
